Experimental data reported in the supplement of paper PMC10307832.

Tests used:
Experiment in all cases: relative viability (nuclei count vs DMSO), 5 days (fraction); higher = more cells survive
Crizotinib + Foretinib = compound: C[C@@H](Oc1cc(-c2cnn(C3CCNCC3)c2)cnc1N)c1c(Cl)ccc(F)c1Cl [Crizotinib] + COc1cc2c(Oc3ccc(NC(=O)C4(C(=O)Nc5ccc(F)cc5)CC4)cc3F)ccnc2cc1OCCCN1CCOCC1 [Foretinib] (partner 0.25 µM)
How it was run: (§1)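 Lung cancer cell lines, seeded in 1536-well plates, were treated the following day by pin tool with a single drug or with five library-drug doses (not always all listed) in √10 steps on top of a fixed anchor-drug dose. Cells were fixed and nuclei stained in one step after 5 days, and nuclei were counted. Relative viability is the nuclei count for treated wells divided by that for vehicle wells, reported as medians of duplicate plates.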

Crizotinib + Phenformin = compound: C[C@@H](Oc1cc(-c2cnn(C3CCNCC3)c2)cnc1N)c1c(Cl)ccc(F)c1Cl [Crizotinib] + N=C(N)NC(=N)NCCc1ccccc1 [Phenformin] (partner 250 µM)
How it was run: as §1

Crizotinib + Decitabine = compound: C[C@@H](Oc1cc(-c2cnn(C3CCNCC3)c2)cnc1N)c1c(Cl)ccc(F)c1Cl [Crizotinib] + Nc1ncn([C@H]2C[C@H](O)[C@@H](CO)O2)c(=O)n1 [Decitabine] (partner 2 µM)
How it was run: as §1

Crizotinib + Olaparib = compound: C[C@@H](Oc1cc(-c2cnn(C3CCNCC3)c2)cnc1N)c1c(Cl)ccc(F)c1Cl [Crizotinib] + O=C(c1cc(Cc2n[nH]c(=O)c3ccccc23)ccc1F)N1CCN(C(=O)C2CC2)CC1 [Olaparib] (partner 8 µM)
How it was run: as §1

Cell Line	relative viability (Crizotinib + Foretinib; first compound 0.01 µM)	relative viability (Crizotinib + Foretinib; first compound 0.03162 µM)	relative viability (Crizotinib + Foretinib; first compound 0.1 µM)	relative viability (Crizotinib + Foretinib; first compound 0.3162 µM)	relative viability (Crizotinib + Foretinib; first compound 1 µM)	relative viability (Crizotinib + Phenformin; first compound 0.01 µM)	relative viability (Crizotinib + Phenformin; first compound 0.03162 µM)	relative viability (Crizotinib + Phenformin; first compound 0.1 µM)	relative viability (Crizotinib + Phenformin; first compound 0.3162 µM)	relative viability (Crizotinib + Phenformin; first compound 1 µM)	relative viability (Crizotinib + Decitabine; first compound 0.01 µM)	relative viability (Crizotinib + Decitabine; first compound 0.03162 µM)	relative viability (Crizotinib + Decitabine; first compound 0.1 µM)	relative viability (Crizotinib + Decitabine; first compound 0.3162 µM)	relative viability (Crizotinib + Decitabine; first compound 1 µM)	relative viability (Crizotinib + Olaparib; first compound 0.01 µM)	relative viability (Crizotinib + Olaparib; first compound 0.03162 µM)	relative viability (Crizotinib + Olaparib; first compound 0.1 µM)	relative viability (Crizotinib + Olaparib; first compound 0.3162 µM)	relative viability (Crizotinib + Olaparib; first compound 1 µM)
NCI-H358	0.609	0.835	0.649	0.624	0.713	0.231	0.324	0.26	0.309	0.347	0.184	0.215	0.2	0.241	0.214	0.634	0.599	0.54	0.561	0.582
NCI-H441	–	0.958	0.931	–	0.825	0.671	0.87	0.713	–	–	0.242	0.238	0.248	0.23	0.244	0.595	0.444	0.583	0.517	0.587
NCI-H460	0.801	1.05	0.996	1.02	1.07	0.488	0.521	0.536	0.526	0.564	0.451	0.511	0.476	0.645	0.452	0.463	0.457	0.455	–	0.423
NCI-H520	0.757	0.827	0.804	–	0.538	0.449	0.682	0.588	0.281	0.45	0.474	0.47	0.496	0.533	0.482	0.285	0.35	0.408	0.301	0.349
NCI-H596	0.854	0.898	0.85	1.11	0.835	0.754	0.859	0.68	0.761	0.754	–	0.993	1.01	1.08	1.11	0.698	0.675	0.695	0.642	0.671
NCI-H647	1.2	1.24	1.19	1.18	1.22	0.494	0.634	0.429	0.513	0.488	0.396	0.382	0.262	0.508	0.448	0.444	0.68	0.564	0.505	0.597
NCI-H650	1.03	0.998	1.03	0.977	0.99	0.392	0.451	0.482	0.365	0.44	0.332	0.291	0.323	–	0.343	0.481	0.465	0.396	–	0.346
NCI-H661	0.941	–	1.01	1.08	0.98	0.257	0.269	0.285	0.266	0.264	0.546	0.533	0.531	0.594	0.569	0.703	0.761	0.741	0.81	0.737
NCI-H727	–	1.24	0.957	–	1.22	–	0.608	0.755	–	0.511	0.763	0.769	0.836	0.763	0.796	0.462	0.565	0.647	0.518	0.737
NCI-H838	0.961	1.04	1.01	0.994	1.02	0.553	0.604	0.556	0.516	0.526	0.433	0.473	0.473	0.483	0.474	0.712	0.763	0.78	0.712	0.726
NCI-H1355	0.935	0.81	0.922	0.916	0.959	0.431	0.497	0.522	0.382	0.442	0.348	0.344	0.392	0.338	0.346	0.714	0.715	0.797	0.622	0.728
NCI-H1395	0.827	0.937	–	0.941	0.959	0.435	0.464	0.493	0.427	0.382	0.661	0.688	0.743	0.791	0.732	0.458	0.452	0.5	0.487	0.428
NCI-H1437	1.14	1.22	1.25	1.27	1.32	0.278	0.306	0.3	0.272	0.345	0.547	0.551	0.613	0.61	0.578	0.625	0.608	0.627	0.651	0.66
NCI-H1650	–	1.1	0.949	1.07	1.43	0.411	0.401	0.387	0.377	0.389	0.3	0.455	0.466	0.396	0.468	0.619	0.801	0.71	0.779	0.722
NCI-H1651	0.615	0.725	0.843	0.864	0.902	0.294	0.356	0.292	0.287	0.336	0.592	0.407	0.63	0.326	0.591	0.183	0.2	0.185	0.173	0.194
NCI-H1666	0.921	0.969	0.99	0.964	0.955	0.514	0.598	0.583	0.558	0.546	0.744	0.651	0.715	0.712	0.673	0.711	0.788	0.819	0.695	0.771
NCI-H1734	0.811	0.847	0.753	–	0.805	0.358	0.368	0.385	–	0.367	0.466	0.5	0.493	–	0.493	0.63	0.574	0.624	–	0.608
